Source: patent US20040006103A1, “Use of chloroquine, hydroxychloroquine and 4 amino-quinolinic derivatives to obtain a drug for the anti retroviral therapy, active towards HIV sensitive strains and towards HIV strains which are resistant to both nucleosidic and non-nucleosidic reverse transcriptase inhibitors and to proteases …” (VALPHARMA S.A., priority 2002, published 2004)
pEC50: −log10 of the molar value. Read-outs that look alike come from different tables or passages of the source.

Experiments:
[1] = tested on: HIV-1 strains geno-phenotypically resistant to EFV; assay: p24 production susceptibility test, Table 7, MT-2 cells; format: cell-based; conditions: for pEC50: Human immunodeficiency virus 1, MT2, MT-2, read-out: E.C.50 HCQ; for S.I. HCQ / Fen. HCQ (fold): MT-2; for S.I. HCQ: I.C.50/E.C.50; for Fen. HCQ (fold): ratio to HIV-IIIB
Text: (§1) For the phenotype of the nucleosidic, non-nucleosidic and proteases inhibitors was utilised a method which consider the use of human PBMC and the protocol standardised by the AIDS Clinical Trials Group, after verifying the genotype by sequence analysis.
(§2) In order to assay in vitro the susceptibility to chloroquine and hydroxychloroquine of the viral strains, it was used the protocol of the ACTG which is characterised by the measure, of the production of antigen p24 in strongly infected cells.
(§3) The susceptibility of the viral strains to chemotherapics was determined in cell cultures, prepared in 96 wells microplates, using, for the infection, 0.1 MOI.
(§4) The supernatant of the infected cultures (either in absence or in presence of different concentrations of chemotherapic) were tested for the production of p24 after 7 days, using an ELISA test which is commercially available.
(§5) The concentrations of chloroquine and hydroxychloroquine tested ranged from 0.5 to 15 uM. At the same time non-infected cells were incubated with concentrations of chloroquine and hydroxychloroquine ranging from 0 to 50 uM to evaluate the toxicity of the compound.
(§6) After 4 day from the infection, half the cellular medium was replaced with a medium containing the corresponding dilution of chloroquine and hydroxychloroquine. The percentage of inhibition of the HIV replication, induced by chloroquine and hydroxychloroquine, was determined, after 7 day from the infection, comparing the levels of p24 of this cultures and that of the control, infected and not treated with chloroquine and hydroxychloroquine.
(§7) Therefore, the E.C.50 of chloroquine and hydroxychloroquine expresses the concentration of chemotherapic that inhibits the 50% of production of p24 and the values were calculated using linear and non linear regression analysis (the significativity for the non linear regression was R^2>0.95).
(§8) In the same experimental conditions and in the same day, but with similar concentrations of chloroquine and hydroxychloroquine, it was evaluated the vitality of the infect cell cultures, and this was expressed as I.C.50.
(§9) I.C.50 (Inhibitory Concentration) indicates the concentration of the chemotherapic agent inhibiting the vitality of the cell cultures at a rate of 50%, when there is not infection.

[2] = tested on: HIV-1 clinical isolated, characterised by mutations in the protease gene inducing geno-phenotypic resistance to IDV; assay: p24 production susceptibility test (ACTG protocol), Table 9; format: cell-based; conditions: for pEC50 / S.I. HCQ / Fen. HCQ (fold): PBMC; for pEC50: read-out: E.C.50 HCQ; for S.I. HCQ: I.C.50/E.C.50; for Fen. HCQ (fold): ratio to HIV-IIIB
Text: as §1, §2, §3, §4, §5, §6, §7, §8, §9

[3] = tested on: viruses resistant to both reverse transcriptase and protease inhibitors; assay: p24 production susceptibility test, summary for resistant viruses; format: cell-based, HIV-1; conditions: Human immunodeficiency virus 1, range
Description: as §2, §3
The supernatant of the infected cultures (either in absence or in presence of different concentrations of chemotherapic) were tested for the production of p24 after 7 days, using an ELISA test which is commercially available. […]
as §6, §7

[4] = tested on: HIV-1 strains geno-phenotypically resistant to NVP; assay: p24 production susceptibility test, Table 6, MT-2 cells; format: cell-based; conditions: for pEC50: Human immunodeficiency virus 1, MT2, MT-2, read-out: E.C.50 HCQ; for S.I. HCQ / Fen. HCQ (fold): MT-2; for S.I. HCQ: I.C.50/E.C.50; for Fen. HCQ (fold): ratio to HIV-IIIB
Text: as §1, §2, §3, §4, §5, §6, §7, §8, §9

[5] = tested on: HIV-1 clinical isolated, characterised by mutations on the protease gene inducing geno-phenotypic resistance to NFV; assay: p24 production susceptibility test, Table 10, H-9 cells; format: cell-based; conditions: for S.I. HCQ / Fen. HCQ (fold): H-9; for S.I. HCQ: I.C.50/E.C.50; for Fen. HCQ (fold): ratio to HIV-IIIB; for pEC50: Human immunodeficiency virus 1, H9, H-9, read-out: E.C.50 HCQ
Text: as §1, §2, §3, §4, §5, §6, §7, §8, §9

[6] = tested on: HIV clinical isolated, characterised by mutations in the RT gene inducing geno-phenotypic resistance to ddI; assay: p24 production susceptibility test (ACTG protocol), Table 2; format: cell-based, HIV-1; conditions: for pEC50: Human immunodeficiency virus 1, PBMC, read-out: E.C.50 HCQ; for S.I. HCQ / Fen HCQ (fold): PBMC; for S.I. HCQ: I.C.50/E.C.50; for Fen HCQ (fold): ratio to HIV-IIIB
Text: as §1, §2, §3, §4, §5, §6, §7, §8, §9

[7] = tested on: HIV clinical isolated, characterised by mutations in the RT gene inducing geno-phenotypic resistance to AZT; assay: p24 production susceptibility test (ACTG protocol), Table 1; format: cell-based, HIV-1; conditions: for pEC50 / S.I. HCQ / Fen. HCQ (fold): PBMC; for pEC50: read-out: E:C.50 HCQ; for S.I. HCQ: I.C.50/E.C.50; for Fen. HCQ (fold): ratio to HIV-IIIB
Text: as §1, §2, §3, §4, §5, §6, §7, §8, §9

[8] = Gen M4IL M184V L210W R211KL 214F T215Y
[9] = Gen. M41I M184V L210W R221K T215Y
[10] = Gen. M41L D67N K70RM 184V T215F

SMILES: CCN(CCO)CCCC(C)Nc1ccnc2cc(Cl)ccc12 (stereo not shown) [HCQ, hydroxychloroquine]
- pEC50 ([1]; Gen. K101D K103N): 5.60
- pEC50 ([1]; Gen. K103N V108D): 5.55
- pEC50 ([1]; Gen. K103N Y181C): 5.60
- pEC50 ([1]; Gen. K103N): 5.55
- pEC50 ([1]; Gen. L100I K103N): 5.49
- pEC50 ([1]; Gen. Y181C): 5.82
- S.I. HCQ ([1]; Gen. K101D K103N): 8.8
- Fen. HCQ (fold) ([1]; Gen. K101D K103N): 1.6X fold
- S.I. HCQ ([1]; Gen. K103N V108D): 7.8
- Fen. HCQ (fold) ([1]; Gen. K103N V108D): 1.8X fold
- S.I. HCQ ([1]; Gen. K103N Y181C): 8.5
- Fen. HCQ (fold) ([1]; Gen. K103N Y181C): 1.6X fold
- S.I. HCQ ([1]; Gen. K103N): 8.7
- Fen. HCQ (fold) ([1]; Gen. K103N): 1.8X fold
- S.I. HCQ ([1]; Gen. L100I K103N): 6
- Fen. HCQ (fold) ([1]; Gen. L100I K103N): 2.1X fold
- S.I. HCQ ([1]; Gen. Y181C): 8.7
- Fen. HCQ (fold) ([1]; Gen. Y181C): 1X fold
- pEC50 ([2]; Human immunodeficiency virus 1, PBMC, Gen. G48V V82A): 5.55
- pEC50 ([2]; Human immunodeficiency virus 1, PBMC, Gen. I84V L90M): 5.74
- pEC50 ([2]; Human immunodeficiency virus 1, PBMC, Gen. K20R E35D M36I I54V V82T): 5.66
- pEC50 ([2]; Human immunodeficiency virus 1, PBMC, Gen. V82F L90M): 5.48
- EC50 ([2]; Human immunodeficiency virus 1, PBMC, read-out: E.C.50 HCQ (uM), PBMC, Gen. L10R M46I L63P V82T): 1.8 µM
- S.I. HCQ ([2]; Gen. G48V V82A): 3
- Fen. HCQ (fold) ([2]; Gen. G48V V82A): 1.5X fold
- S.I. HCQ ([2]; Gen. I84V L90M): 5.5
- Fen. HCQ (fold) ([2]; Gen. I84V L90M): 1X fold
- S.I. HCQ ([2]; Gen. K20R E35D M36I I54V V82T): 4.5
- Fen. HCQ (fold) ([2]; Gen. K20R E35D M36I I54V V82T): 1.2X fold
- S.I. HCQ ([2]; Gen. L10R M46I L63P V82T): 5
- Fen. HCQ (fold) ([2]; Gen. L10R M46I L63P V82T): 0.8X fold
- S.I. HCQ ([2]; Gen. V82F L90M): 2.5
- Fen. HCQ (fold) ([2]; Gen. V82F L90M): 1.7X fold
- pEC50 [3]: 5.46 to 5.82
- pEC50 ([4]; Gen. G190E): 5.46
- pEC50 ([4]; Gen. K103N): 5.55
- pEC50 ([4]; Gen. V106A): 5.49
- pEC50 ([4]; Gen. Y181C): 5.49
- S.I. HCQ ([4]; Gen. G190E): 6
- Fen. HCQ (fold) ([4]; Gen. G190E): 1.9X fold
- S.I. HCQ ([4]; Gen. K103N): 7.8
- Fen. HCQ (fold) ([4]; Gen. K103N): 1.5X fold
- S.I. HCQ ([4]; Gen. V106A): 6.2
- Fen. HCQ (fold) ([4]; Gen. V106A): 1.7X fold
- S.I. HCQ ([4]; Gen. Y181C): 6.1
- Fen. HCQ (fold) ([4]; Gen. Y181C): 1.7X fold
- S.I. HCQ ([5]; Gen. D30N): 4.4
- Fen. HCQ (fold) ([5]; Gen. D30N): 1.2X fold
- S.I. HCQ ([5]; Gen. V82A): 5.5
- Fen. HCQ (fold) ([5]; Gen. V82A): 1.3X fold
- pEC50 ([5]; Gen. D30N): 5.66
- pEC50 ([5]; Gen. V82A): 5.60
- pEC50 ([6]; Gen D67N K70R M184V T215Y): 5.60
- pEC50 ([6]; Gen D67N K70R T215F K70R): 5.60
- pEC50 ([6]; Gen K70R T215F K219Q): 5.70
- pEC50 [6, 8]: 5.60
- pEC50 ([6]; Gen M41I T215F): 5.60
- pEC50 ([6]; Gen M41L D67N K70R M184V T215Y): 5.60
- pEC50 ([6]; Gen M41L D67N K70R T215Y): 5.55
- S.I. HCQ ([6]; Gen D67N K70R M184V T215Y): 4.5
- Fen HCQ (fold) ([6]; Gen D67N K70R M184V T215Y): 1.3X fold
- S.I. HCQ ([6]; Gen D67N K70R T215F K70R): 3.4
- Fen HCQ (fold) ([6]; Gen D67N K70R T215F K70R): 1.1X fold
- S.I. HCQ ([6]; Gen K70R T215F K219Q): 5
- Fen HCQ (fold) ([6]; Gen K70R T215F K219Q): 0.8X fold
- S.I. HCQ [6, 8]: 4
- Fen HCQ (fold) [6, 8]: 1.3X fold
- S.I. HCQ ([6]; Gen M41I T215F): 4.5
- Fen HCQ (fold) ([6]; Gen M41I T215F): 1.3X fold
- S.I. HCQ ([6]; Gen M41L D67N K70R M184V T215Y): 3.6
- Fen HCQ (fold) ([6]; Gen M41L D67N K70R M184V T215Y): 1.3X fold
- S.I. HCQ ([6]; Gen M41L D67N K70R T215Y): 3.4
- Fen HCQ (fold) ([6]; Gen M41L D67N K70R T215Y): 1.1X fold
- pEC50 ([7]; Human immunodeficiency virus 1, PBMC, Gen. D67N K70R T215F K219Q): 5.70
- pEC50 ([7]; Human immunodeficiency virus 1, PBMC, Gen. D 67 Ns K 70N T215F K219Q): 5.60
- pEC50 ([7]; Human immunodeficiency virus 1, PBMC, Gen. K70R T215F K219Q): 5.70
- pEC50 ([7]; Human immunodeficiency virus 1, PBMC, Gen. M41I M184V L210W R221K T215Y): 6.00
- pEC50 ([7]; Human immunodeficiency virus 1, PBMC, Gen. M41I T215Y): 5.60
- pEC50 ([7]; Human immunodeficiency virus 1, PBMC, Gen. M41L D67N K70RM 184V T215F): 5.60
- EC50 ([7]; Human immunodeficiency virus 1, PBMC, read-out: E:C.50 HCQ (uM), PBMC, Gen. M41LD 76N K70R T215Y): 2.8 µM
- S.I. HCQ ([7]; Gen. D67N K70R T215F K219Q): 4
- Fen. HCQ (fold) ([7]; Gen. D67N K70R T215F K219Q): 1.1X fold
- S.I. HCQ ([7]; Gen. D 67 Ns K 70N T215F K219Q): 3.6
- Fen. HCQ (fold) ([7]; Gen. D 67 Ns K 70N T215F K219Q): 1.6X fold
- S.I. HCQ ([7]; Gen. K70R T215F K219Q): 5
- Fen. HCQ (fold) ([7]; Gen. K70R T215F K219Q): 1.1X fold
- S.I. HCQ [7, 9]: 7
- Fen. HCQ (fold) [7, 9]: 0.5X fold
- S.I. HCQ ([7]; Gen. M41I T215Y): 4.5
- Fen. HCQ (fold) ([7]; Gen. M41I T215Y): 1.3X fold
- S.I. HCQ [7, 10]: 3.6
- Fen. HCQ (fold) [7, 10]: 1.3X fold
- S.I. HCQ ([7]; Gen. M41LD 76N K70R T215Y): 3.4
- Fen. HCQ (fold) ([7]; Gen. M41LD 76N K70R T215Y): 1.5X fold
